Measurements published in PMC4942819 (Scientific Reports, 2016).
Converted amounts (≈) assume the structure as drawn. Where two headings read alike, the source gives them in different places.

Experiments:
[1] = tested on: Mycobacterium tuberculosis H37Rv; experiment: microplate Alamar blue assay (MABA), MIC; type: cell-based; conditions: replicating H37Rv
Mycobacterium avium = experiment: microdilution plate assay, MIC; type: cell-based
M. tuberculosis H37Rv = experiment: MABA checkerboard synergy assay; type: cell-based, Mycobacterium tuberculosis; conditions: for MIC: Mycobacterium tuberculosis, H37RV, checkerboard, drug alone, read-out: MIC against H37Rv, MIC alone
MDR1 = experiment: bi-directional permeability across MDR1-MDCKII cell monolayer; type: in vitro ADME; conditions: dog, MDCK-MDR1; MDR1-MDCKII
Method: (§1) The In vitro ADME/T assays were conducted at WuXi AppTec Co. Ltd.(Shanghai). ClogP was calculated with ChemDraw Ultra 14.0. In the study of bi-directional permeability across MDR1-MDCKII cell monolayer, permeability was correlated with the apparent permeability coefficient Papp (cm/s), which was interpreted as follows: Low permeability( Papp ≤ 1.0×10^-6 cm/s), Moderate permeability(1.0×10^-6 < Papp < 5.5×10^-6 cm/s) or High permeability( Papp ≥ 5.5×10^-6 cm/s). ^aaqueous solubility at room temperature.

CYP2C9 = CYP2C9 (Homo sapiens, UniProt P11712); experiment: CYP inhibition; type: in vitro ADME
Method: as §1

CYP3A4 = CYP3A4 (Homo sapiens, UniProt P08684); experiment: CYP inhibition; type: in vitro ADME
Method: as §1

CYP2D6 = CYP2D6 (Homo sapiens, UniProt P10635); experiment: CYP inhibition; type: in vitro ADME
Method: as §1

CYP2C19 = CYP2C19 (Homo sapiens, UniProt P33261); experiment: CYP inhibition; type: in vitro ADME
Method: as §1

[2] = tested on: Mycobacterium tuberculosis Erdman; experiment: microplate Alamar blue assay (MABA), MIC; type: cell-based
[3] = in vivo acute toxicity study; parameters: species or system BALB/c mice; AST: unit not given here; conditions: for ALB / ALP / AST / BUN / CHOL / TP: 1 g/kg i.p., 2 weeks, Mean ± SE, n = 5
Method: All animal experiments have been approved by the Institutional Animal Care and Treatment Committee of Sichuan University in China and were carried out in accordance with the approved guidelines. 20 BALB/c mice in both sexes were administered with SKLB-TB1001 CMC suspension at 1 g/kg by intraperitoneal injection, control mice remained untreated. Animals were continuously observed for 24 hours after administration. In each group, numbers of deaths and general behavior were recorded within 2 weeks, LD50 values were calculated. 2 weeks later, animals were sacrificed, blood samples were collected from the eye vein for biochemical and hematological tests. The organs and tissues of animals were removed and fixed in 10% formalin and embedded in paraffin for histological evaluation.

[4] = pharmacokinetic study in SD rats; type: in vivo; conditions: female, rat, plasma, SD rats
Method: All animal experiments have been approved by the Institutional Animal Care and Treatment Committee of Sichuan University in China and were carried out in accordance with the approved guidelines. SPF female SD rats weighing 180–220 g were used in the pharmacokinetic study. The rats were fasted overnight before dosing. Every treatment group contain 3 rats. Rats were dosed with SKLB-TB1001 or BTZ043 suspension at 5 mg/kg (i.v. and p.o.). Compounds were dissolved in 5% DMSO/10% Solutol HS15 in saline for intravenous injection and suspended in 0.5% CMC for oral administration. Blood was collected from the jugular vein of each animal at the following times after administration of drugs: 0.083, 0.25, 0.5, 1, 2, 4, 6, 8 and 24 h after a single i.v. dosing; and 0.25, 0.5, 1, 2, 4, 6, 8 and 24 h after a single oral dosing. All blood samples were centrifuged at 3000 r/min for 10 min to obtain serum which was then stored at −20 °C. 150 μL of the serum was added to 500 μL of acetonitrile and the mixture was centrifuged at 13000 r/min for 10 min to remove protein. The supernatant was dried and dissolve in 100 μL of acetonitrile, the solution was centrifuged at 13000 r/min for 10 min. The supernatant was moved to a sample bottle for HPLC analysis. Total area under the concentration time curve (AUC), the elimination half-time (t1/2), the peak concentration (Cmax) and the time to reach peak concentration (Tmax) of samples were determined directly from the experimental data using WinNonlin V6.2.1.

M. tuberculosis Erdman = experiment: in vivo acute M.tb Erdman infection mouse model; parameters: species or system Mycobacterium tuberculosis; conditions: BALB/c mice
XDR-TB clinical isolates = experiment: microbe, parasite or virus in culture; type: cell-based, Mycobacterium tuberculosis; conditions: Mycobacterium tuberculosis

CYP2C9, sequence (P11712 whole entry): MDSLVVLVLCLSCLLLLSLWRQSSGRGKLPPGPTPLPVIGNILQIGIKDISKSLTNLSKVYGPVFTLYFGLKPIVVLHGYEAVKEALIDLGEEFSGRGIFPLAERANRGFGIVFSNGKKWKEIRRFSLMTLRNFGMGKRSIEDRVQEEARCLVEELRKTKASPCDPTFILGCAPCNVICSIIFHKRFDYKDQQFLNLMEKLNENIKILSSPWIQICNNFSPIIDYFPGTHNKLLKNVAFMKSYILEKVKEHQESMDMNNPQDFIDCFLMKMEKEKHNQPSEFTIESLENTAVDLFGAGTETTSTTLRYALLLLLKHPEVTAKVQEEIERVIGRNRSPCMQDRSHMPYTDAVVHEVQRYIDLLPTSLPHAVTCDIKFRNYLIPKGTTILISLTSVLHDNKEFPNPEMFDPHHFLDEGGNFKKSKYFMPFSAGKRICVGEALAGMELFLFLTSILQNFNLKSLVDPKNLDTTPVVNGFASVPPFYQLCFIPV
CYP3A4, sequence (P08684 whole entry): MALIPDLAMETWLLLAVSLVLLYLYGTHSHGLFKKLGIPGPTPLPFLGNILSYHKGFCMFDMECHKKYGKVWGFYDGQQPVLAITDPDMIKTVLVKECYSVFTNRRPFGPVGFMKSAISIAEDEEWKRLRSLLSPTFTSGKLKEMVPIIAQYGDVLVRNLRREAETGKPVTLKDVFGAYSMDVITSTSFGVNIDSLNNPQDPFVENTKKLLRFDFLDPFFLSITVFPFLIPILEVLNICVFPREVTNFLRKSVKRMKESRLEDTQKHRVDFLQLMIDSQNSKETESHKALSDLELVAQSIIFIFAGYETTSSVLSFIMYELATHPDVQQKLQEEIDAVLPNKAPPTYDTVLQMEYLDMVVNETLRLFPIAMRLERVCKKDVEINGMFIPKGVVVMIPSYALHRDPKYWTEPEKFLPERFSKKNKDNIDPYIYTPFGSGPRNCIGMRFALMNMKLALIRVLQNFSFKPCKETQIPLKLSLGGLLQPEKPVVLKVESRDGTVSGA
CYP2C19, sequence (P33261 whole entry): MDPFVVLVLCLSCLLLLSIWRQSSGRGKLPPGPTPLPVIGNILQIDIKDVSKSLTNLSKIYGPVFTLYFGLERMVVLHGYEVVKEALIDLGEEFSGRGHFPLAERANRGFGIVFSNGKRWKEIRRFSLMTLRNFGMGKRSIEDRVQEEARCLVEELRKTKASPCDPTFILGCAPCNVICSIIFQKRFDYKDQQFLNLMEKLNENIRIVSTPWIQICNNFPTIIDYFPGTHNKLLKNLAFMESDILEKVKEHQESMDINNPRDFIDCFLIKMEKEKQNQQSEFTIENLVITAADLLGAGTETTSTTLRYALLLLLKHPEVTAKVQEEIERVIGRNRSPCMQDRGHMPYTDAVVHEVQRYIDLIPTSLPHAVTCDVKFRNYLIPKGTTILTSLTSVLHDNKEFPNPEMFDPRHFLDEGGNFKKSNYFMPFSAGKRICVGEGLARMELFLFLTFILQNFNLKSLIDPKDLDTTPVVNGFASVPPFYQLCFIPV
CYP2D6, sequence (P10635 whole entry): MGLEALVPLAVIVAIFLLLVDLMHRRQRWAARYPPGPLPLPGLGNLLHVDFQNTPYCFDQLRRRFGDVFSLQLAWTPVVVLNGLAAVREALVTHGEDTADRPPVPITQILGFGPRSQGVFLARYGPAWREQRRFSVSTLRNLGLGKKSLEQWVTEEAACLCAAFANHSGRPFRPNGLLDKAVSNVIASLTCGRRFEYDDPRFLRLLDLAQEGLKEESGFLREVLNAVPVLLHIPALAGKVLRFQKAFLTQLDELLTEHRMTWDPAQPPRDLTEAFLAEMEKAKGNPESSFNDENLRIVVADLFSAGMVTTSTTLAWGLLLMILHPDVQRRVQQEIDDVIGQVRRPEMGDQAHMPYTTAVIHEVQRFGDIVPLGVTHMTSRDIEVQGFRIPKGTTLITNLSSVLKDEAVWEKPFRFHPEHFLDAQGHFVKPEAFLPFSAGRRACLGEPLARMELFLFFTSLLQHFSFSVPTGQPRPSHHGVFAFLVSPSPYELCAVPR

For `O=[N+]([O-])c1cc(C(F)(F)F)cc2c(=S)nc(N3CCC4(CC3)OCCO4)sc12` [SKLB-TB1001, 8-nitro-2-(1,4-dioxa-8-azaspiro[4.5]decan-8-yl)-6-(trifluoromethyl)-4H-benzo[e][1,3]thiazine-4-thione], the MIC [1] was 0.02 µg/mL (≈ 0.0461 µM), the MIC (Mycobacterium avium) was 32 µg/mL (≈ 73.8 µM) and the MIC (M. tuberculosis H37Rv; 336 h) was 0.02 µg/mL. The MIC (M. tuberculosis H37Rv) was 0.02 µg/mL, the FICI (M. tuberculosis H37Rv; combination with linezolid) was 1.34 and the “MIC against H37Rv, MIC in combo.” value (M. tuberculosis H37Rv; in combination with INH) was 7 ng/mL. The “MIC against H37Rv, MIC in combo.” value (M. tuberculosis H37Rv; in combination with LZD) was 13 ng/mL, the “MIC against H37Rv, MIC in combo.” value (M. tuberculosis H37Rv; in combination with MOX) was 8 ng/mL and the FICI (M. tuberculosis H37Rv; in combination with RMP) was 0.22. The “MIC against H37Rv, MIC in combo.” value (M. tuberculosis H37Rv; in combination with RMP) was 1 ng/mL, the “decrease of MIC” value (M. tuberculosis H37Rv; in the presence of RMP) was 5 fold and the FICI (M. tuberculosis H37Rv; in the presence of isoniazid) was 0.68. The FICI (M. tuberculosis H37Rv; in the presence of moxifloxacin) was 0.97, the Papp A→B (MDR1) was 6.96 ×10⁻⁶ cm/s and the Papp B→A (MDR1) was 7.27 ×10⁻⁶ cm/s. The efflux ratio (MDR1) was 1.04, the IC50 (CYP2C9) was over 10 µM and the IC50 (CYP3A4) was over 10 µM. The IC50 (CYP2D6) was over 10 µM, the IC50 (CYP2C19) was over 10 µM and the MIC [2] was under 0.05 µg/mL. The “death in acute single dose toxicity studies” value ([3]; BALB/c mice, 1 g/kg, 14 days) was “no death”, the “pathological changes in heart, liver, lung, kidneys and spleen” value ([3]; BALB/c mice, 1 g/kg, 14 days) was “No observable pathological changes” and the maximum non-toxic dose ([3]; BALB/c mice, single dose, intraperitoneal) was “greater than 1 g/kg”. It also gave an ALB ([3]; Female Treatment) of 32.18 ± 0.65 g/L, an ALP ([3]; Female Treatment) of 162.00 ± 4.70 U/L and an AST ([3]; Female Treatment) of 154.60 ± 5.57. The BUN ([3]; Female Treatment) was 7.06 ± 0.35 mmol/L, the CHOL ([3]; Female Treatment) was 3.31 ± 0.08 mmol/L and the TP ([3]; Female Treatment) was 68.56 ± 1.42 g/L. It also gave an ALB ([3]; Male Treatment) of 32.84 ± 0.44 g/L, an ALP ([3]; Male Treatment) of 159.20 ± 6.98 U/L and an AST ([3]; Male Treatment) of 153.40 ± 4.30. The BUN ([3]; Male Treatment) was 7.10 ± 0.60 mmol/L, the CHOL ([3]; Male Treatment) was 3.31 ± 0.07 mmol/L and the TP ([3]; Male Treatment) was 68.38 ± 1.58 g/L. It also gave a bioavailability ([4]; oral, AUC (p.o., 5 mg/kg)/AUC(i.v., 5 mg/kg), read-out: F, absolute oral bioavailability) of 44.4%, a half-life ([4]; po, 5 mg/kg, terminal half-life for elimination) of 87 min and an AUC ([4]; po, p.o., 5 mg/kg, t = 0 to infinity, read-out: AUC) of 847 ng·h/mL. For the same molecule, the Tmax ([4]; po, p.o., 5 mg/kg, read-out: Tmax) was 1.13 h, the Cmax ([4]; po, p.o., 5 mg/kg, read-out: Cmax) was 193 ng/mL and the “reduction of M.tb CFU in lungs compared to the vehicle group” value (M. tuberculosis Erdman; 150 mg/kg daily for 4 weeks) was 3.4 logs. For the same molecule, the “reduction of M.tb CFU in lungs compared to treatment initiation” value (M. tuberculosis Erdman; 150 mg/kg daily for 4 weeks) was 0.87 logs, the “Log10 CFU (SD), bacterial burden in mouse lungs” value (M. tuberculosis Erdman; Day-36, 150 mg/kg oral daily from day 10) was 2.84 (2.93) and the MIC (XDR-TB clinical isolates; read-out: MIC, XDR-TB strain X15) was under 0.0156 µg/mL. It also gave an MIC (XDR-TB clinical isolates; read-out: MIC, XDR-TB strain X17) of under 0.0156 µg/mL.
